# Legend:
# [1] = test system: neointima formation in the rat abdominal aorta; experiment: Neointima area in stented rat abdominal aorta (histology); assay type: in vivo
# Excerpt: (§1) Specific pathogen-free, male Wistar rats (Harlan, Horst, Netherlands) were fed standard rat chow and water ad libitum. For Ang-(1-7) administration by minipump, 28 rats were used. The animals were anaesthetised with O2, N2O and isoflurane (Abbot B.V., Hoofddorp, Netherlands). In 20 animals, bare metal stents (Medtronic Driver® 2.5×8 mm stents) were placed in the abdominal aorta. Upon stent placement, osmotic minipumps (Model 2004, Alzet, Charles River, Maastricht, The Netherlands) were implanted subcutaneously for drug delivery via a catheter in the jugular vein. The pumps infused either Ang-(1-7) (Bachem, Well am Rhein, Germany) (24 μg/kg/h) (n=10) or saline (0.25 μl/h) (n=10). Furthermore, a control group underwent sham surgery (n=8: surgery identical to stent groups, but without balloon insertion and stenting), and received an osmotic minipump releasing saline. Treatment continued for four weeks. Five rats were excluded because of technical failure (aortic leakage or minipump failure) resulting in n=7 for Ang-(1-7) infusion, n=10 for saline infusion, and n-6 for sham-operated rats. […]
# To determine if Ang-(1-7) infusion by minipump or elution from the stent reduced neointima formation, neointima area was measured in animals which received Ang-(1-7) either by stent or minipump (Table 1).
# [2] = test system: iliac artery; experiment: Small vessel myograph, iliac artery rings four weeks after stenting; assay type: in vivo, rat; settings: FIG. 3
# Excerpt: as §1, with “weeks.” for “weeks. Five rats were excluded because of technical failure (aortic leakage or minipump failure) resulting in n=7 for Ang-(1-7) infusion, n=10 for saline infusion, and n-6 for sham-operated rats.”
# (§2) Iliac and brachial arteries were prepared under a dissection microscope in Krebs solution that was kept at 4° C. […] After this, vessels were brought to tension in 20 μm steps until reaching a diameter corresponding to 100 mmHg transmural pressure (L100, calculated by exponential curve fitting with Excel software). […] All responses were recorded in grams tension. The responses to MeCh were expressed as the percent decrease in PE EC70 responses.
# [3] = test system: rat bone marrow mononuclear cells (MNC) and endothelial progenitor cells (EPC); experiment: Cultured rat bone marrow mononuclear cells (MNC) and endothelial progenitor cells (EPC); assay type: cell-based; settings: 10^−7 mol/L, 7 days of culture
# Description: Five rats were sacrificed by exsanguination under O2, N2O and isoflurane anaesthesia. Bone marrow was isolated from the left and right femurs by flushing the bone marrow cavity with sterile phosphate-buffered saline at room temperature (PBS, Gibco, Invitrogen, Breda, The Netherlands). From each individual rat, MNC were obtained by density gradient centrifugation at 2000 rpm (MSE Mistral 3000i, UK) for 20 minutes at room temperature according to manufacturer's instruction (Cedarlane Laboratories ltd., Hornby, Canada). Cells from individual rats were then resuspended in endothelial cell basal medium-2 (EGM; Cambrex Bioproducts, Clonetics, New Jersey, USA) containing supplemented 2% fetal bovine serum and EGM-2 SingleQuots (Clonetics). At day 1, 5×10^5 cells/well were seeded in 1% gelatin (225 bloom, Sigma-Aldrich, Zwijndrecht, The Netherlands) precoated 96-well culture plates (Costar, Corning, N.Y., USA) at 37° C. in a humidified incubator in the presence of 5% CO2. At day 3 of culture, medium with non-attached cells was removed, and replaced by fresh culture medium containing Ang-(1-7) at 10^−7 mol/L with or without antagonists (treatment medium). Next, cells were grown for 7 days, changing treatment medium at day 5 and day 7. At day 9, treatment medium was removed and culture medium supplemented with 10 μg/mL acetylated low-density lipoprotein (Dil-Ac-LDL) was added to the cells for 4 h. […]
# Detection of staining was performed with the use of fluorescence microscopy (Leica, Wetzlar, Germany) at a magnification of 200×. […] Cells were quantified with the use of ImagePro software (Media Cybernetics, Silver Spring, USA). In the occasion that the presence of cell clusters hindered proper digital quantification, cell numbers were assessed by hand. […]
# To this purpose MNC were isolated from rat bone marrow and cultured for 2 days to allow attachment. […] To determine if Ang-(1-7) preferentially stimulated EPC, the number of EPC was expressed as a percentage of the total population of MNC (FIG. 6B). […]
# [4] = test system: brachial artery; experiment: Small vessel myograph, brachial artery rings four weeks after stenting; assay type: in vivo, rat; settings: minipump infusion
# Excerpt: as §1, with “weeks.” for “weeks. Five rats were excluded because of technical failure (aortic leakage or minipump failure) resulting in n=7 for Ang-(1-7) infusion, n=10 for saline infusion, and n-6 for sham-operated rats.”
# as §2
# [5] = test system: isolated thoracic aorta rings; experiment: Organ bath, isolated thoracic aortic rings four weeks after stenting; assay type: in vivo, rat; settings: minipump infusion, FIG. 5
# Excerpt: Specific pathogen-free, male Wistar rats (Harlan, Horst, Netherlands) were fed standard rat chow and water ad libitum. For Ang-(1-7) administration by minipump, 28 rats were used. The animals were anaesthetised with O2, N2O and isoflurane (Abbot B.V., Hoofddorp, Netherlands). In 20 animals, bare metal stents (Medtronic Driver® 2.5×8 mm stents) were placed in the abdominal aorta. Upon stent placement, osmotic minipumps (Model 2004, Alzet, Charles River, Maastricht, The Netherlands) were implanted subcutaneously for drug delivery via a catheter in the jugular vein. The pumps infused either Ang-(1-7) (Bachem, Well am Rhein, Germany) (24 μg/kg/h) (n=10) or saline (0.25 μl/h) (n=10). Furthermore, a control group underwent sham surgery (n=8: surgery identical to stent groups, but without balloon insertion and stenting), and received an osmotic minipump releasing saline. Treatment continued for four weeks. Five rats were excluded because of technical failure (aortic leakage or minipump failure) resulting in n=7 for Ang-(1-7) infusion, n=10 for saline infusion, and n-6 for sham-operated rats.
# To test the effect of Ang-(1-7)-eluting stents (see Example 1 for details), 36 rats underwent placement of three types of stents into the abdominal aorta, bare metal stents, stents coated with polymer alone, or stents coated with polymer containing approximately 90 μg Ang-(1-7). Six rats were excluded because of technical failure during surgery, and three stents could not be processed due to incomplete polymerisation of embedding plastic (see below) leaving n=9 for bare metal stent, n=10 for stent with polymer only and n=8 for stent with polymer+Ang-(1-7).
# Twenty-eight days after stent implantation, the animals were anaesthetised with O2, N2O and isoflurane, and systemically heparinized with 500 IE intravenously (Leo Pharma B.V., Breda, The Netherlands). The stented abdominal aortas were harvested, fixed, embedded in methylmethacrylate, sectioned and stained for histological analysis as described previously. […]
# The stented aortas were evaluated in organ bath studies with isolated vascular rings. […] The endothelium-dependent vasodilation was assessed by a cumulative dose of metacholine (MeCh; 10 nM to 0.1 mM). […] The NO-dependent vasodilation to metacholine was calculated, by subtraction of the vasodilation in the presence of L-NMMA from the total vasodilation. The PG-dependent vasodilation in response to MeCh was calculated by subtraction of the vasodilation in the presence of L-NMMA and indomethacin from the vasodilation in the presence of L-NMMA. The EDHF-dependent vasodilation was determined by the vasodilation to metacholine in the presence of L-NMMA and indomethacin. […]
substance,measurement,setting,value
angiotensin-(1-7) (DRVYIHP; listed as Homo sapiens) [Ang-(1-7)],neointimal formation (in words),[1]; infusion using a minipump,reduction
same,Neointima area NIA,"[1]; minipump infusion 24 μg/kg/h for four weeks, bare metal stent in rat abdominal aorta, p < 0.05 vs. saline",0.51 ± 0.05 mm²
same,vasodilation upon stimulation with metacholine,"[2]; chronic infusion by minipump, iliac artery (downstream)",increased
same,vasoconstrictions (phenylephrine),"[2]; minipump infusion, iliac artery",remained equal
same,number of EPC,[3]; FIG. 6A,increased
same,number of MNC,[3]; FIG. 6A,increased
same,relative number of EPC (percentage of total MNC),[3]; FIG. 6B,increased
same,vasodilator function,"[4]; brachial artery (remote), FIG. 4",improved
same,vasoconstrictor responses to phenylephrine,"[4]; brachial artery, to the level of sham-operated rats",decreased
same,EDHF contribution to metacholine vasodilation,[5]; thoracic aorta,stimulated
same,NO release (contribution to metacholine vasodilation),[5]; thoracic aorta,did not alter
same,PG contribution to metacholine vasodilation,[5]; thoracic aorta,stimulated
same,Emax of total response on metacholine,[5]; stented group showed 40% decrease,full recovery
